This note sets out measurements from US10927111B2, “Inhibitors of RAF kinases” (Kinnate Biopharma Inc., priority 2019, dated 2021).

Like-named read-outs stand apart in the source and are kept apart here.

This assay has as its target human RAF1 (Homo sapiens (Human), UniProt P04049). As to the kind of experiment: Protein kinase assay (radiometric 33P-ATP, MEK1 (K97R) substrate). The format is biochemical. The note with it: read-out: RAF-1 IC50.

Chain of human RAF1 (P04049 whole entry): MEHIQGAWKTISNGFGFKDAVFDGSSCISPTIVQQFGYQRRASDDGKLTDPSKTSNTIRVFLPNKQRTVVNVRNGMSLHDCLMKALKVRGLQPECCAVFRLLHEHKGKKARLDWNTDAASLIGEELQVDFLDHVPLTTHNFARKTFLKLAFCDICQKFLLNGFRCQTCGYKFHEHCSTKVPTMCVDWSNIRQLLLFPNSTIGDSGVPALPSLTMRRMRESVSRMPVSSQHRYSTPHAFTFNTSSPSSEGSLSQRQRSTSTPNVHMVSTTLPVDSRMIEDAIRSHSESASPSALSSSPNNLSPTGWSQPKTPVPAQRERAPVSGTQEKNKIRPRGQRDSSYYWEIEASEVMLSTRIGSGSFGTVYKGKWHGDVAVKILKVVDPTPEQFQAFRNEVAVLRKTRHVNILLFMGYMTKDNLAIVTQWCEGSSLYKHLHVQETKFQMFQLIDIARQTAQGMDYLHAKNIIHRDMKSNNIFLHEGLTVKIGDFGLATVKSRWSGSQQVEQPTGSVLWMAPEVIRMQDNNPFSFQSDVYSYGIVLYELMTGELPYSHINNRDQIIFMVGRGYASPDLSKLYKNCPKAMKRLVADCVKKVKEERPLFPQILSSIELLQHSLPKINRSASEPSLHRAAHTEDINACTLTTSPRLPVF

As to `CNc1ncc2cc(-c3cc(NC(=O)N4CCC5(CCC(F)(F)C5)C4)c(F)cc3C)c(C)nc2n1` (centres unmarked) [Example 15, 7,7-difluoro-N-(2-fluoro-4-methyl-5-(7-methyl-2-(methylamino)pyrido[2,3-d]pyrimidin-6-yl)phenyl)-2-azaspiro[4.4]nonane-2-carboxamide], under “human MEK1 (K97R) substrate 3 micromolar, ATP 10 micromolar, 10-dose IC50 mode”, the IC50 is not above 10 nM. Turning to `[2H]C([2H])([2H])Nc1ncc2cc(-c3cc(NC(=O)c4ccnc(C(F)(F)F)c4)ccc3C)c(C)nc2n1` [Example 43, N-(4-methyl-3-(7-methyl-2-((trideuteromethyl)amino)pyrido[2,3-d]pyrimidin-6-yl)phenyl)-2-(trifluoromethyl)isonicotinamide], the IC50 was not above 10 nM.
